Test results: patent US20040247607A1, “Use of surfactants to stabilize oocysts” (priority 1999, published 2004)

Test system: oocysts
Assay: Evaluation of naturally derived surfactants for decreasing and preventing oocyst aggregation
From the text: In one aspect, the present invention provides a method for evaluating the ability of a surfactant to prevent aggregation of oocysts, sporocysts, and/or sporozoites. The method comprises adding a surfactant to a composition that comprises oocysts, sporocysts, sporozoites, or any combination thereof, at a concentration sufficient to prevent aggregation of the oocysts, sporocysts, and/or sporozoites (i.e. a test concentration). The resulting composition is then agitated, for example, by shaking manually or via an automatic shaker. As previously described, agitating the composition exposes the oocysts, sporocysts, and/or sporozoites to air or other gases, and promotes aggregation. After agitation, the composition is evaluated to determine whether any aggregation has occurred. Preferably, evaluation occurs by visually observing the composition for the presence of aggregated oocysts, sporocysts, and/or sporozoites. […]
In another aspect, the present invention provides a method for evaluating the ability of a surfactant to reduce oocyst, sporocyst, and/or sporozoite aggregation. […] Upon addition of the surfactant, the resulting composition is agitated, as previously described, and then evaluated to determine whether the aggregation has been reduced or eliminated entirely by addition of the surfactant. […]

| Substance | decreasing and preventing aggregation of oocysts |
| --- | --- |
| serum albumin | effective |
| casein | effective |
